The values that follow come from US9409905B2, “Antibacterial compounds and methods for use” (PTC THERAPEUTICS, INC., priority 2011, dated 2016).

In brackets after ≈: the same amount, converted by molar mass.

For test [1], the system named is Escherichia coli (E. coli) BAS849. The test can be described thus: Antibacterial activity, microbroth dilution MIC (Table 1). The settings on record: microbroth dilution, super sensitive Gram-negative E. coli BAS849, read-out: MIC, BAS849. Format: cell-based. An outline of the steps: (§1)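 Microbroth dilution was used. MIC, in μg/mL, is the lowest drug concentration preventing macroscopically visible growth under the test conditions.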
(In general: In broth dilution the organism is exposed to a series of concentrations in liquid medium.)

Test [2] relates to Staphylococcus aureus (S. aureus) 29213. The description is as above. Format: cell-based. Conditions: microbroth dilution, Gram-positive S. aureus 29213, read-out: MIC, 29213. An outline of the steps: as §1
In the next test the test system is E. coli 25922. Described as above. Format: cell-based, Escherichia coli. Conditions: Escherichia coli; microbroth dilution; control Gram-negative E. coli 25922 strain; read-out: MIC, 25922. In a few lines: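 Broth microdilution against S. aureus 29213, E. coli 25922 and hypersensitive E. coli BAS849. MIC in μg/mL is the lowest drug concentration preventing macroscopically visible growth under test conditions.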

The test system of the next test is E. coli LZ3111. The test can be described thus: Antibacterial activity, MIC, quinolone resistant strain (Table 2). Format: cell-based. Conditions: Escherichia coli, LZ3111, read-out: MIC LZ3111. An outline of the steps: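 MIC values (μg/mL) came from a microbroth dilution assay, scored as the lowest drug concentration at which no growth was visible by eye.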
A further test concerns E. coli ELZ4000. The test can be described thus: Antibacterial activity, MIC, multi-drug resistant clinical isolate (Table 3). The format is cell-based. The settings on record: Escherichia coli, ELZ4000, read-out: MIC ELZ4000. An outline of the steps: (§2)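 Compounds were serially diluted in broth microdilution format and growth was scored visually; the MIC is the lowest concentration at which no macroscopically visible growth occurred, expressed in μg/mL.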

A further test deals with E. coli ELZ4251. Described as above. The format is cell-based. Conditions: Escherichia coli. An outline of the steps: as §2
The test system of test [3] is Pseudomonas aeruginosa (P. aeruginosa) 27853. The test can be described thus: Antibacterial activity, MIC (Table 5). The format is cell-based. The settings on record: P. aeruginosa 27853, read-out: MIC, 27853. In a few lines: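 Values are MICs in μg/mL, read as the lowest concentration at which no growth is visible by eye. They were determined by a microbroth dilution method.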

Test [4] has as its system Haemophilus influenzae (H. influenzae) 49247. The test can be described thus: Antibacterial activity, MIC (Table 6). The format is cell-based. The text has this:
(§3) The antibacterial activity from a microbroth dilution method may be presented as the minimum inhibitory concentration (MIC in μg/mL). The MIC value is the lowest concentration of drug which prevents macroscopically visible growth under test conditions.
(§4) Antibacterial activity of test compounds against the Gram-negative bacteria Haemophilus influenzae (H. influenzae) 49247 is shown in Table 6, Moraxella catarrhalis (M. catarrhalis) 25238 is shown in Table 7 and Neisseria meningitidis (N. meningitidis) 13090 is shown in Table 8.

The test system of test [5] is Neisseria meningitidis (N. meningitidis) 13090. The test can be described thus: Antibacterial activity, MIC (Table 8). The format is cell-based. In a few lines: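 Activity was determined by microbroth dilution. MIC, in μg/mL, is the lowest drug concentration that prevents macroscopically visible growth under the test conditions.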
Test [6] relates to Acinetobacter baumannii (A. baumannii) BAA747. The test can be described thus: Antibacterial activity, MIC (Table 4). Format: cell-based. Conditions: A. baumannii BAA747, read-out: MIC, BAA747. An outline of the steps:
(§5)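 The resistant panel comprises multi-drug resistant clinical isolates. All strains were tested by microbroth dilution, with the MIC in μg/mL taken as the lowest concentration that prevented macroscopically visible growth.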

For test [7], the system named is Klebsiella pneumoniae (K. pneumoniae) 35657. The test can be described thus: Antibacterial activity, MIC (Table 4). The format is cell-based. The settings on record: K. pneumoniae 35657, read-out: MIC, 35657. In a few lines: as §5
Another test relates to A. baumannii MXX2240. The test can be described thus: Antibacterial activity, MIC, resistant strain (Table 4). The format is cell-based. The settings on record: Acinetobacter baumannii, MXX2240; resistant A. baumannii MMX2240, multi-drug resistant clinical isolate; read-out: MIC, MMX2240. An outline of the steps: as §5
In another test the test system is K. pneumoniae MXX1232. Described as above. The settings on record: Klebsiella pneumoniae, MXX1232; resistant K. pneumoniae MMX1232, multi-drug resistant clinical isolate; read-out: MIC, MMX1232. Format: cell-based. An outline of the steps:
as §5

The subject of test [8] is Moraxella catarrhalis (M. catarrhalis) 25238. The test can be described thus: Antibacterial activity, MIC (Table 7). The format is cell-based.
Description: as §3, §4

Take `CCc1cc(C(=O)O)c(=O)[nH]c1-c1ccc2c(c1)CCCN2C` [Cpd 1, 5-ethyl-6-(1-methyl-1,2,3,4-tetrahydroquinolin-6-yl)-2-oxo-1,2-dihydropyridine-3-carboxylic acid]: the MIC in test [1] was below 1 µg/mL; in test [2] it was 12.5 to 150 µg/mL (≈ 40 to 480 µM); in the test on E. coli 25922 it was 1 to 3.5 µg/mL (≈ 3.2 to 11.2 µM); in the test on E. coli LZ3111, 12.5 to 150 µg/mL (≈ 40 to 480 µM); with E. coli ELZ4000 it was 12.5 to 150 µg/mL (≈ 40 to 480 µM); against E. coli ELZ4251 it was 12.5 to 150 µg/mL (≈ 40 to 480 µM). Moreover, the MIC in [3] is 12.5 to 150 µg/mL (≈ 40 to 480 µM); in test [4], below 1 µg/mL; in test [5] it was below 1 µg/mL.
For `CCc1cc(C(=O)O)c(=O)[nH]c1-c1ccc2c(c1)CCN2C` [Cpd 5, 5-ethyl-6-(1-methylindolin-5-yl)-2-oxo-1,2-dihydropyridine-3-carboxylic acid], the MIC in [1] was below 1 µg/mL; in test [2], 12.5 to 150 µg/mL (≈ 41.9 to 503 µM); in the test on E. coli 25922 it was 3.5 to 12.5 µg/mL (≈ 11.7 to 41.9 µM); in the test with E. coli LZ3111, 12.5 to 150 µg/mL (≈ 41.9 to 503 µM); with E. coli ELZ4000, 12.5 to 150 µg/mL (≈ 41.9 to 503 µM); with E. coli ELZ4251, 12.5 to 150 µg/mL (≈ 41.9 to 503 µM). The MIC in test [6] is 1 to 3.5 µg/mL (≈ 3.35 to 11.7 µM); in [7], 3.5 to 12.5 µg/mL (≈ 11.7 to 41.9 µM); in the test with A. baumannii MXX2240, 12.5 to 150 µg/mL (≈ 41.9 to 503 µM); with K. pneumoniae MXX1232, 12.5 to 150 µg/mL (≈ 41.9 to 503 µM); in test [3], 12.5 to 150 µg/mL (≈ 41.9 to 503 µM); in [4], below 1 µg/mL. The MIC in test [5] is below 1 µg/mL.
For `CCc1c(-c2ccc3c(c2)CCN3C)[nH]c(=O)c(C(=O)O)c1O` [Cpd 6, 5-ethyl-4-hydroxy-6-(1-methylindolin-5-yl)-2-oxo-1,2-dihydropyridine-3-carboxylic acid], the MIC in test [1] is below 1 µg/mL; in [2] it was 3.5 to 12.5 µg/mL (≈ 11.1 to 39.8 µM); with E. coli 25922, 3.5 to 12.5 µg/mL (≈ 11.1 to 39.8 µM); in the test on E. coli LZ3111 it was 12.5 to 150 µg/mL (≈ 39.8 to 477 µM); with E. coli ELZ4000 it was 12.5 to 150 µg/mL (≈ 39.8 to 477 µM); in the test on E. coli ELZ4251, 12.5 to 150 µg/mL (≈ 39.8 to 477 µM). Besides, the MIC in [6] is 1 to 3.5 µg/mL (≈ 3.18 to 11.1 µM); in test [7], 12.5 to 150 µg/mL (≈ 39.8 to 477 µM); in the test on A. baumannii MXX2240 it was 1 to 3.5 µg/mL (≈ 3.18 to 11.1 µM); in the test with K. pneumoniae MXX1232 it was 12.5 to 150 µg/mL (≈ 39.8 to 477 µM); in [3] it was 12.5 to 150 µg/mL (≈ 39.8 to 477 µM); in test [4], below 1 µg/mL. The MIC in [5] was below 1 µg/mL.
In the case of `CCc1cc(C(=O)O)c(=O)[nH]c1-c1ccc2c(ccn2C)c1` [Cpd 21, 5-ethyl-6-(1-methyl-1H-indol-5-yl)-2-oxo-1,2-dihydropyridine-3-carboxylic acid], the MIC is below 1 µg/mL in test [1]; 3.5 to 12.5 µg/mL (≈ 11.8 to 42.2 µM) in test [2]; below 1 µg/mL with E. coli 25922; 12.5 to 150 µg/mL (≈ 42.2 to 506 µM) in the test on E. coli LZ3111; 12.5 to 150 µg/mL (≈ 42.2 to 506 µM) with E. coli ELZ4000; 12.5 to 150 µg/mL (≈ 42.2 to 506 µM) in the test with E. coli ELZ4251. Further, the MIC is below 1 µg/mL in test [6]; below 1 µg/mL in test [7]; 12.5 to 150 µg/mL (≈ 42.2 to 506 µM) in the test with A. baumannii MXX2240; 12.5 to 150 µg/mL (≈ 42.2 to 506 µM) in the test with K. pneumoniae MXX1232; 12.5 to 150 µg/mL (≈ 42.2 to 506 µM) in test [3]; below 1 µg/mL in [4]. This molecule also displayed an MIC in [5] below 1 µg/mL.
Take `CCc1c(-c2ccc3c(ccn3C)c2)[nH]c(=O)c(C(=O)O)c1O` [Cpd 22, 5-ethyl-4-hydroxy-6-(1-methyl-1H-indol-5-yl)-2-oxo-1,2-dihydropyridine-3-carboxylic acid]: the MIC was below 1 µg/mL in test [1]; 1 to 3.5 µg/mL (≈ 3.2 to 11.2 µM) in test [2]; below 1 µg/mL with E. coli 25922; 1 to 3.5 µg/mL (≈ 3.2 to 11.2 µM) with E. coli LZ3111; 3.5 to 12.5 µg/mL (≈ 11.2 to 40 µM) in the test on E. coli ELZ4000; 3.5 to 12.5 µg/mL (≈ 11.2 to 40 µM) with E. coli ELZ4251. The MIC in test [6] was below 1 µg/mL; in [7], 1 to 3.5 µg/mL (≈ 3.2 to 11.2 µM); with A. baumannii MXX2240, below 1 µg/mL; in the test with K. pneumoniae MXX1232, 12.5 to 150 µg/mL (≈ 40 to 480 µM); in test [3] it was 12.5 to 150 µg/mL (≈ 40 to 480 µM); in [4], below 1 µg/mL. The MIC in test [8] and in test [5] was below 1 µg/mL in each case.
